Among the data in ChEMBL document CHEMBL2069169, “Novel triazines as potent and selective phosphodiesterase 10A inhibitors” (Bioorg Med Chem Lett, 2012) are IC50 values, retold here.

Structures are written as SMILES.

One test concerns the target Phosphodiesterase 6. Kind of test: Inhibition of PDE6. In kind it is protein assay, Homo sapiens.
The target in a further test is Phosphodiesterase 3 (Homo sapiens, UniProt Q14432+Q13370). Kind of test: Inhibition of PDE3. Format: protein assay.
The target of a further test is Phosphodiesterase 4 (Homo sapiens, UniProt P27815+Q08499+Q07343+Q08493). As to the kind of experiment: Inhibition of PDE4. In kind it is protein assay.
The target of test [1] is cAMP and cAMP-inhibited cGMP 3',5'-cyclic phosphodiesterase 10A (Homo sapiens, UniProt Q9Y233). Kind of test: Inhibition of human recombinant PDE10A-catalyzed cAMP hydrolysis.
The target of test [2] is cGMP-specific 3',5'-cyclic phosphodiesterase (Canis lupus familiaris, UniProt O77746). As to the kind of experiment: Inhibition of PDE5. Details: species or system Homo sapiens.
Test [3] has as its target cGMP-dependent 3',5'-cyclic phosphodiesterase (Homo sapiens, UniProt O00408). Kind of test: Inhibition of PDE2.

Sequence of cAMP and cAMP-inhibited cGMP 3',5'-cyclic phosphodiesterase 10A (Q9Y233 whole entry): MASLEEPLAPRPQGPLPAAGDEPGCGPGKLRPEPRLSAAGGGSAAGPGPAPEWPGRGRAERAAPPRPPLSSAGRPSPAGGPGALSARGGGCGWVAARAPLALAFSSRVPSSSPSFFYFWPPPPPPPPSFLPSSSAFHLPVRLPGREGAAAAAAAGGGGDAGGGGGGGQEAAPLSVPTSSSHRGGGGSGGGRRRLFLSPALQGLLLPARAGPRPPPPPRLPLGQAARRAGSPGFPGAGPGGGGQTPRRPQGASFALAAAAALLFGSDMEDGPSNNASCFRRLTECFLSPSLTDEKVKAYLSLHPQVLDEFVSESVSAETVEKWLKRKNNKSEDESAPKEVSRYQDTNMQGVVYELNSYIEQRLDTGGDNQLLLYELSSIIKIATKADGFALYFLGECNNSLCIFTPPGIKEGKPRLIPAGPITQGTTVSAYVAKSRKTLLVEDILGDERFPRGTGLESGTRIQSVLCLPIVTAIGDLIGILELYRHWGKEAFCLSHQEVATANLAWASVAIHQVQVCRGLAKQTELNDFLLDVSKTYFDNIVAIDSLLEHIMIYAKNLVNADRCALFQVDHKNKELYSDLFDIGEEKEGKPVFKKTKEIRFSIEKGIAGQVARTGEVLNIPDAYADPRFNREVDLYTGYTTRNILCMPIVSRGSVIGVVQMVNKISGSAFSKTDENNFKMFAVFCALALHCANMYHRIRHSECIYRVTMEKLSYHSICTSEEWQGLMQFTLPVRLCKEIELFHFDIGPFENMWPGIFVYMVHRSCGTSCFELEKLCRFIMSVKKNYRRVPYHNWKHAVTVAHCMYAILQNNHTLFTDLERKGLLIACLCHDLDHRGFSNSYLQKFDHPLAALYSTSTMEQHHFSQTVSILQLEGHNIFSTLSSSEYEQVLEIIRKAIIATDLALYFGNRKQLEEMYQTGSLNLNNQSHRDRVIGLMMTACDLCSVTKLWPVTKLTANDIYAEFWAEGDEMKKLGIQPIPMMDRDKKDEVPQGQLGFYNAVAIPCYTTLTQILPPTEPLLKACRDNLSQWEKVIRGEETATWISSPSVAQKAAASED
Sequence of cGMP-dependent 3',5'-cyclic phosphodiesterase (O00408 whole entry): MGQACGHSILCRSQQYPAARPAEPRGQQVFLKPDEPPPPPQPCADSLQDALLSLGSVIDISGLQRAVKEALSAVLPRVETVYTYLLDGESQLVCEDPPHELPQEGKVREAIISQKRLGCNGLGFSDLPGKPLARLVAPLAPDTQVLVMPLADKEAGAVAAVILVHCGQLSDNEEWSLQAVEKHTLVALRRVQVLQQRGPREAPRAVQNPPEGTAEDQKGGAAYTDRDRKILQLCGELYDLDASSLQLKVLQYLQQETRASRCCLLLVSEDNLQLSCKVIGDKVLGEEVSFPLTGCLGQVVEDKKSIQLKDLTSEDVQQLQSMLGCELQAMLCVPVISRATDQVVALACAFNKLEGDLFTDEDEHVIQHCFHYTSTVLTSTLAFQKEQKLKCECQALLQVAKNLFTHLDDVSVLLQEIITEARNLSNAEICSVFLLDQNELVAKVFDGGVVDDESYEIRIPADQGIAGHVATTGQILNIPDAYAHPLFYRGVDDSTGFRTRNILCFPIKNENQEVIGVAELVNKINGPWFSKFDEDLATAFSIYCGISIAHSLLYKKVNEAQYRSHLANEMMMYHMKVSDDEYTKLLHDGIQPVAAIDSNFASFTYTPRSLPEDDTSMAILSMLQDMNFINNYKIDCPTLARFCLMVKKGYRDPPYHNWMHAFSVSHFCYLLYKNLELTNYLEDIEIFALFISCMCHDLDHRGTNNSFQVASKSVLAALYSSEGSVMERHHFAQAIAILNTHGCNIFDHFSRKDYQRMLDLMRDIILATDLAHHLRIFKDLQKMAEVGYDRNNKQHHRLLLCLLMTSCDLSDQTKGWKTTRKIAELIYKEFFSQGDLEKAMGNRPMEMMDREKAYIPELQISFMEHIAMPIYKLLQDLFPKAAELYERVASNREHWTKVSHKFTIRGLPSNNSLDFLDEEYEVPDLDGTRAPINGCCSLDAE

Broadly, the IC50 is the point on the concentration scale where inhibition reaches its midpoint. Turning to `COc1ccc2nnc3c(C)nc(-c4cc(Cl)ccc4Cl)n3c2n1`, the IC50 at Phosphodiesterase 6 was 829 nM; against Phosphodiesterase 3, 750 nM; against Phosphodiesterase 4, 4410 nM; in test [1] it was 53.1 nM; in test [2] it was 1150 nM; in test [3], 2.06 nM.

For the molecule `COc1cc(F)cc2c1nnc1c(C)nc(-c3cnccc3C)n12`, the IC50 (against Phosphodiesterase 6; on Phosphodiesterase 3; at Phosphodiesterase 4; in test [2]) was more than 10000 nM throughout.

Regarding `COc1cc(N2CCOCC2)cc2c1nnc1c(C)nc(-c3ccccc3Cl)n12`, the IC50 was 276 nM against Phosphodiesterase 6, more than 10000 nM against Phosphodiesterase 3, 2680 nM against Phosphodiesterase 4 and 603 nM in test [2].

On to `COc1cccc2c1nnc1c(C)nc(-c3ccccc3Cl)n12`, for which the IC50 on Phosphodiesterase 6 was 1060 nM; against Phosphodiesterase 3, more than 10000 nM; on Phosphodiesterase 4, 70.8 nM; in test [2], 3060 nM.

In the case of `COc1ccccc1-c1nc(C)c2nnc3c(OC)cc(F)cc3n12`, the half-inhibitory concentration (IC50) (at Phosphodiesterase 6; against Phosphodiesterase 3; against Phosphodiesterase 4; in test [2]) was more than 10000 nM in each case.

On to `COc1cc(C(F)(F)F)cc2c1nnc1c(C)nc(-c3cccc(F)c3C)n12`, for which the IC50 was 1260 nM against Phosphodiesterase 6; more than 5000 nM on Phosphodiesterase 3; more than 5000 nM on Phosphodiesterase 4; 1.85 nM in test [1]; 2130 nM in test [2]; 722 nM in test [3].

As for `COc1ccc2nnc3c(C)nc(-c4ccc(Cl)cc4Cl)n3c2n1`, the IC50 (at Phosphodiesterase 6; at Phosphodiesterase 3; against Phosphodiesterase 4; in test [2]) was more than 1000 nM in each case.

For the molecule `COc1cc(OC(F)F)cc2c1nnc1c(C)nc(-c3ccncc3C)n12`, the 50% inhibitory concentration (IC50) is 909 nM on Phosphodiesterase 6; more than 10000 nM on Phosphodiesterase 3; more than 10000 nM against Phosphodiesterase 4; 7 nM in test [1]; 4020 nM in test [2]; 944 nM in test [3].

On to `COc1cc(F)cc2c1nnc1c(C)nc(-c3ccncc3C)n12`, for which the half-inhibitory concentration (IC50) at Phosphodiesterase 6 is more than 10000 nM; against Phosphodiesterase 3 it was more than 10000 nM; on Phosphodiesterase 4, more than 10000 nM; in test [1] it was 7.2 nM; in test [2], more than 10000 nM; in test [3], 1220 nM.

For `COc1ccc2nnc3c(C)nc(-c4ccccc4C)n3c2n1`, the IC50 at Phosphodiesterase 6 was 1570 nM; against Phosphodiesterase 3, more than 5000 nM; at Phosphodiesterase 4, more than 10000 nM; in test [1], 47.6 nM; in test [2] it was 3410 nM.

Turning to `COc1cc(N2CCOCC2)cc2c1nnc1c(C)nc(-c3ccncc3C)n12`, the half-maximal inhibitory concentration (IC50) against Phosphodiesterase 6 was 3120 nM; against Phosphodiesterase 3, more than 10000 nM; against Phosphodiesterase 4 it was more than 10000 nM; in test [2], 5380 nM; in test [3] it was 4.37 nM.

With `COc1cc(N2CCOCC2)cc2c1nnc1c(C)nc(-c3ccccc3C)n12`, the IC50 on Phosphodiesterase 6 is 693 nM; against Phosphodiesterase 3 it was more than 10000 nM; at Phosphodiesterase 4, 2920 nM; in test [2], 651 nM.

As for `COc1cc(F)cc2c1nnc1c(C)nc(-c3cccc(F)c3C)n12`, the IC50 (at Phosphodiesterase 6; against Phosphodiesterase 3; on Phosphodiesterase 4; in test [2]) was more than 1000 nM each time.

For `COc1ccc2nnc3c(C)nc(-c4ccc(F)cc4C)n3c2n1`, the IC50 was 1150 nM at Phosphodiesterase 6; 7260 nM on Phosphodiesterase 3; more than 10000 nM at Phosphodiesterase 4; 45.9 nM in test [1]; 34100 nM in test [2]; 13.2 nM in test [3].

For `COc1cc(F)cc2c1nnc1c(C)nc(-c3sc(C)nc3C)n12`, the IC50 against Phosphodiesterase 6 is 3880 nM; at Phosphodiesterase 3, more than 10000 nM; on Phosphodiesterase 4, 2460 nM; in test [2], 4760 nM.

For the molecule `COc1cc(F)cc2c1nnc1c(C)nc(-c3sccc3C)n12`, the IC50 is 3270 nM at Phosphodiesterase 6, more than 10000 nM on Phosphodiesterase 3, 7720 nM against Phosphodiesterase 4 and 3600 nM in test [2].

Regarding `COc1ccc2nnc3c(C)nc(-c4cc(OC(C)C)ccc4F)n3c2n1`, the figures for the IC50 in test [1] and in test [3] were 2430 nM and 102 nM, respectively.

Regarding `COc1cc(F)c2nnc3c(C)nc(-c4sccc4C)n3c2c1`, the IC50 on Phosphodiesterase 6 was found to be 1230 nM; against Phosphodiesterase 3, 2250 nM; on Phosphodiesterase 4 it was 3670 nM; in test [2], 2780 nM.

In the case of `COc1cc(C(F)(F)F)cc2c1nnc1c(C)nc(-c3cnccc3C)n12`, the IC50 was 5250 nM on Phosphodiesterase 6; more than 10000 nM against Phosphodiesterase 3; more than 10001 nM at Phosphodiesterase 4; 5.11 nM in test [1]; more than 10000 nM in test [2]; 864 nM in test [3].

For the molecule `COc1cc(F)cc2c1nnc1c(C)nc(-c3cccnc3C)n12`, the half-inhibitory concentration (IC50) against Phosphodiesterase 6 was 2830 nM; against Phosphodiesterase 3, more than 10000 nM; against Phosphodiesterase 4, more than 10000 nM; in test [1], 7.84 nM; in test [2], more than 5000 nM; in test [3], 1270 nM.

Regarding `COc1cccc(-c2nc(C)c3nnc4c(OC)cc(F)cc4n23)c1`, the IC50 on Phosphodiesterase 6 was more than 1000 nM; at Phosphodiesterase 3, more than 1000 nM; at Phosphodiesterase 4, more than 1000 nM; in test [2] it was more than 1000 nM; in test [3], 2000 nM.

As for `COc1ccc2nnc3c(C)nc(-c4ccccc4Cl)n3c2n1`, the concentration for half-maximal inhibition (IC50) against Phosphodiesterase 6 was 435 nM; on Phosphodiesterase 3, 1240 nM; against Phosphodiesterase 4, more than 10000 nM; in test [1], 13.1 nM; in test [2] it was 1680 nM; in test [3], 4.3 nM.

Take `COc1ccc2nnc3c(C)nc(-c4ccc(F)cc4Cl)n3c2n1`: the half-maximal inhibitory concentration (IC50) was 462 nM against Phosphodiesterase 6, more than 1000 nM at Phosphodiesterase 3, more than 1000 nM against Phosphodiesterase 4 and more than 1000 nM in test [2].

For `COc1cc(OC)c2nnc3c(C)nc(-c4ccccc4C)n3c2c1`, the IC50 on Phosphodiesterase 6 is 349 nM; at Phosphodiesterase 3, more than 10000 nM; against Phosphodiesterase 4 it was more than 10000 nM; in test [1] it was 5.13 nM; in test [2], 1110 nM; in test [3] it was 95.9 nM.

`COc1cc(F)cc2c1nnc1c(C)nc(-c3c(C)nn(C)c3C)n12`: the IC50 was more than 5000 nM on Phosphodiesterase 6, more than 10000 nM against Phosphodiesterase 3, more than 10000 nM at Phosphodiesterase 4 and more than 10000 nM in test [2].

In the case of `COc1cc(OC)c2nnc3c(C)nc(-c4ccccc4C(F)(F)F)n3c2c1`, the IC50 on Phosphodiesterase 6 is more than 1000 nM; on Phosphodiesterase 3 it was more than 1000 nM; at Phosphodiesterase 4 it was more than 1000 nM; in test [1], 3.35 nM; in test [2] it was more than 1000 nM; in test [3] it was 522 nM.

On to `COc1ccc(F)c(-c2nc(C)c3nnc4ccc(OC)nc4n23)c1`, for which the IC50 against Phosphodiesterase 6 turned out to be 734 nM; against Phosphodiesterase 3 it was 1820 nM; on Phosphodiesterase 4, 4820 nM; in test [2], 702 nM.
